Usually melting point stands for the temperature, or range, at which the solid turns liquid.

Molecules are shown by their SMILES.

The test system of the first series is Mycosphaerella graminicola; anamorph: Septoria tritici; Bayer code SEPTTR. The series is described as follows: Fungicidal activity: leaf blotch of wheat, one-day protectant (1DP) and three-day curative (3DC) tests on wheat plants. It counts as in vivo, Septoria tritici on wheat plants (variety Yuma). The note with it: Zymoseptoria tritici, 24 h; 25 ppm; one-day protectant; rating of % disease control vs untreated inoculated plants; read-out: SEPTTR 25 ppm 1DP. As to the method: Evaluation of Fungicidal Activity: Leaf Blotch of Wheat (Mycosphaerella graminicola; anamorph: Septoria tritici; Bayer code […]) Wheat plants (variety Yuma) were grown from seed in a greenhouse in 50% mineral soil/50% soil-less Metro mix until the first leaf was fully emerged, with 7-10 seedlings per pot. These plants were inoculated with an aqueous spore suspension of Septoria tritici either prior to or after fungicide treatments. After inoculation the plants were kept in 100% relative humidity (one day in a dark dew chamber followed by two to three days in a lighted dew chamber) to permit spores to germinate and infect the leaf. The plants were then transferred to a greenhouse for disease to develop. The following table presents the activity of typical compounds of the present disclosure when evaluated in these experiments. The effectiveness of the test compounds in controlling disease was determined by assessing the severity of disease on treated plants, then converting the severity to percent control based on the level of disease on untreated, inoculated plants. In each case of Table III the rating scale is as follows: […]
`O=CNc1nc(ON=Cc2ccccc2)ncc1F` [Compound 4, N-{5-fluoro-2-[1-phenylmethylideneamino-oxy]pyrimidin-4-yl}formamide]: the pest or weed control at 25 ppm fell in the range of 76 to 100%.

With `CC=NOc1ncc(F)c(NCc2ccccc2F)n1` [Compound 20], the pest or weed control at 25 ppm lay within 26 to 50%.

Consider `COc1ccc(C=NOc2ncc(F)c(NCc3ccccc3F)n2)cc1` [Compound 19], for which the pest or weed control at 25 ppm was 51 to 75%.

On to `Fc1ccccc1CNc1nc(ON=Cc2ccccc2)ncc1F` [Compound 17], for which the pest or weed control at 25 ppm fell in the range of 76 to 100%.

`COc1ccc(CNc2nc(ON=Cc3ccc(Cl)cc3)ncc2F)cc1` [Compound 32]: the pest or weed control at 25 ppm was 0 to 25%.

As for `CN(Cc1ccccc1)c1nc(ON=Cc2ccccc2)ncc1F` [Compound 36], the pest or weed control at 25 ppm was in the range of 0 to 25%.

With `COc1ccc(C=NOc2ncc(F)c(N(C)Cc3ccc(Cl)cc3)n2)cc1` [Compound 43], the pest or weed control at 25 ppm is 0 to 25%.

For `CC(C)C=NOc1ncc(F)c(NCc2ccccc2F)n1` [Compound 16, 2-methylpropionaldehyde O-[5-fluoro-4-(2-fluorobenzylamino)pyrimidin-2-yl]oxime], the pest or weed control at 25 ppm is 0 to 25%.

For the compound `COc1ccc(C=NOc2ncc(F)c(NCc3ccc(OC)cc3)n2)cc1` [Compound 33], the pest or weed control at 25 ppm was in the range of 51 to 75%.

`COc1ccc(CNc2nc(ON=Cc3ccccc3)ncc2F)cc1` [Compound 31]: the pest or weed control at 25 ppm was in the range of 26 to 50%.

For `COc1ccc(CNc2nc(ON=CC(C)C)ncc2F)cc1` [Compound 35], the pest or weed control at 25 ppm was in the range of 0 to 25%.

On to `CC=NOc1ncc(F)c(NCc2ccccc2)n1` [Compound 24], for which the pest or weed control at 25 ppm fell in the range of 0 to 25%.

Consider `CC=NOc1ncc(F)c(N(C)Cc2ccc(OC)cc2)n1` [Compound 49], for which the pest or weed control at 25 ppm fell in the range of 0 to 25%.

As for `CC(C)C=NOc1ncc(F)c(NCc2ccccc2)n1` [Compound 25], the pest or weed control at 25 ppm lay in the range of 0 to 25%.

Still in this series, the particulars now being: Zymoseptoria tritici, 24 h; 100 ppm; one-day protectant; rating of % disease control vs untreated inoculated plants; read-out: SEPTTR 100 ppm 1DP.
In the case of `O=CNc1nc(ON=Cc2ccccc2)ncc1F` [Compound 4, N-{5-fluoro-2-[1-phenylmethylideneamino-oxy]pyrimidin-4-yl}formamide], the pest or weed control at 100 ppm lay in the range of 76 to 100%.

On to `CC=NOc1ncc(F)c(NCc2ccccc2F)n1` [Compound 20], for which the pest or weed control at 100 ppm is 51 to 75%.

`COc1ccc(C=NOc2ncc(F)c(NCc3ccccc3F)n2)cc1` [Compound 19]: the pest or weed control at 100 ppm lay in the range of 76 to 100%.

For `Fc1ccccc1CNc1nc(ON=Cc2ccccc2)ncc1F` [Compound 17], the pest or weed control at 100 ppm lay in the range of 76 to 100%.

On to `COc1ccc(CNc2nc(ON=Cc3ccc(Cl)cc3)ncc2F)cc1` [Compound 32], for which the pest or weed control at 100 ppm is 0 to 25%.

Take `CN(Cc1ccccc1)c1nc(ON=Cc2ccccc2)ncc1F` [Compound 36]: the pest or weed control at 100 ppm is 0 to 25%.

For `COc1ccc(C=NOc2ncc(F)c(N(C)Cc3ccc(Cl)cc3)n2)cc1` [Compound 43], the pest or weed control at 100 ppm fell in the range of 0 to 25%.

Take `CC(C)C=NOc1ncc(F)c(NCc2ccccc2F)n1` [Compound 16, 2-methylpropionaldehyde O-[5-fluoro-4-(2-fluorobenzylamino)pyrimidin-2-yl]oxime]: the pest or weed control at 100 ppm lay within 0 to 25%.

Regarding `COc1ccc(C=NOc2ncc(F)c(NCc3ccc(OC)cc3)n2)cc1` [Compound 33], the pest or weed control at 100 ppm fell in the range of 76 to 100%.

Turning to `COc1ccc(CNc2nc(ON=Cc3ccccc3)ncc2F)cc1` [Compound 31], the pest or weed control at 100 ppm was in the range of 76 to 100%.

In the case of `COc1ccc(CNc2nc(ON=CC(C)C)ncc2F)cc1` [Compound 35], the pest or weed control at 100 ppm lay in the range of 26 to 50%.

Regarding `CC=NOc1ncc(F)c(NCc2ccccc2)n1` [Compound 24], the pest or weed control at 100 ppm fell in the range of 0 to 25%.

As for `CC=NOc1ncc(F)c(N(C)Cc2ccc(OC)cc2)n1` [Compound 49], the pest or weed control at 100 ppm was in the range of 0 to 25%.

With `CC(C)C=NOc1ncc(F)c(NCc2ccccc2)n1` [Compound 25], the pest or weed control at 100 ppm fell in the range of 26 to 50%.

Staying with this series, now noted: Zymoseptoria tritici, 72 h; 25 ppm; three-day curative; rating of % disease control vs untreated inoculated plants; read-out: SEPTTR 25 ppm 3DC.
Take `O=CNc1nc(ON=Cc2ccccc2)ncc1F` [Compound 4, N-{5-fluoro-2-[1-phenylmethylideneamino-oxy]pyrimidin-4-yl}formamide]: the pest or weed control at 25 ppm was in the range of 76 to 100%.

For `CC=NOc1ncc(F)c(NCc2ccccc2F)n1` [Compound 20], the pest or weed control at 25 ppm was 51 to 75%.

Turning to `COc1ccc(C=NOc2ncc(F)c(NCc3ccccc3F)n2)cc1` [Compound 19], the pest or weed control at 25 ppm lay within 0 to 25%.

Regarding `Fc1ccccc1CNc1nc(ON=Cc2ccccc2)ncc1F` [Compound 17], the pest or weed control at 25 ppm was in the range of 0 to 25%.

On to `COc1ccc(CNc2nc(ON=Cc3ccc(Cl)cc3)ncc2F)cc1` [Compound 32], for which the pest or weed control at 25 ppm lay in the range of 26 to 50%.

Regarding `CN(Cc1ccccc1)c1nc(ON=Cc2ccccc2)ncc1F` [Compound 36], the pest or weed control at 25 ppm fell in the range of 26 to 50%.

For the compound `COc1ccc(C=NOc2ncc(F)c(N(C)Cc3ccc(Cl)cc3)n2)cc1` [Compound 43], the pest or weed control at 25 ppm is 26 to 50%.

Turning to `CC(C)C=NOc1ncc(F)c(NCc2ccccc2F)n1` [Compound 16, 2-methylpropionaldehyde O-[5-fluoro-4-(2-fluorobenzylamino)pyrimidin-2-yl]oxime], the pest or weed control at 25 ppm is 51 to 75%.

Regarding `COc1ccc(C=NOc2ncc(F)c(NCc3ccc(OC)cc3)n2)cc1` [Compound 33], the pest or weed control at 25 ppm lay within 0 to 25%.

In the case of `COc1ccc(CNc2nc(ON=Cc3ccccc3)ncc2F)cc1` [Compound 31], the pest or weed control at 25 ppm is 51 to 75%.

For the compound `COc1ccc(CNc2nc(ON=CC(C)C)ncc2F)cc1` [Compound 35], the pest or weed control at 25 ppm was in the range of 0 to 25%.

With `CC=NOc1ncc(F)c(NCc2ccccc2)n1` [Compound 24], the pest or weed control at 25 ppm lay in the range of 0 to 25%.

Regarding `CC=NOc1ncc(F)c(N(C)Cc2ccc(OC)cc2)n1` [Compound 49], the pest or weed control at 25 ppm lay within 0 to 25%.

In the case of `CC(C)C=NOc1ncc(F)c(NCc2ccccc2)n1` [Compound 25], the pest or weed control at 25 ppm fell in the range of 26 to 50%.

The series is the same for the next values; noted with them: Zymoseptoria tritici, 72 h; 100 ppm; three-day curative; rating of % disease control vs untreated inoculated plants; read-out: SEPTTR 100 ppm 3DC.
Turning to `O=CNc1nc(ON=Cc2ccccc2)ncc1F` [Compound 4, N-{5-fluoro-2-[1-phenylmethylideneamino-oxy]pyrimidin-4-yl}formamide], the pest or weed control at 100 ppm lay in the range of 76 to 100%.

With `CC=NOc1ncc(F)c(NCc2ccccc2F)n1` [Compound 20], the pest or weed control at 100 ppm lay in the range of 76 to 100%.

As for `COc1ccc(C=NOc2ncc(F)c(NCc3ccccc3F)n2)cc1` [Compound 19], the pest or weed control at 100 ppm fell in the range of 0 to 25%.

Regarding `Fc1ccccc1CNc1nc(ON=Cc2ccccc2)ncc1F` [Compound 17], the pest or weed control at 100 ppm lay within 0 to 25%.

With `COc1ccc(CNc2nc(ON=Cc3ccc(Cl)cc3)ncc2F)cc1` [Compound 32], the pest or weed control at 100 ppm was in the range of 76 to 100%.

With `CN(Cc1ccccc1)c1nc(ON=Cc2ccccc2)ncc1F` [Compound 36], the pest or weed control at 100 ppm lay in the range of 51 to 75%.

On to `COc1ccc(C=NOc2ncc(F)c(N(C)Cc3ccc(Cl)cc3)n2)cc1` [Compound 43], for which the pest or weed control at 100 ppm lay in the range of 26 to 50%.

On to `CC(C)C=NOc1ncc(F)c(NCc2ccccc2F)n1` [Compound 16, 2-methylpropionaldehyde O-[5-fluoro-4-(2-fluorobenzylamino)pyrimidin-2-yl]oxime], for which the pest or weed control at 100 ppm lay within 76 to 100%.

As for `COc1ccc(C=NOc2ncc(F)c(NCc3ccc(OC)cc3)n2)cc1` [Compound 33], the pest or weed control at 100 ppm lay within 51 to 75%.

On to `COc1ccc(CNc2nc(ON=Cc3ccccc3)ncc2F)cc1` [Compound 31], for which the pest or weed control at 100 ppm was in the range of 76 to 100%.

Regarding `COc1ccc(CNc2nc(ON=CC(C)C)ncc2F)cc1` [Compound 35], the pest or weed control at 100 ppm lay within 76 to 100%.

Consider `CC=NOc1ncc(F)c(NCc2ccccc2)n1` [Compound 24], for which the pest or weed control at 100 ppm fell in the range of 26 to 50%.

For `CC=NOc1ncc(F)c(N(C)Cc2ccc(OC)cc2)n1` [Compound 49], the pest or weed control at 100 ppm is 26 to 50%.

On to `CC(C)C=NOc1ncc(F)c(NCc2ccccc2)n1` [Compound 25], for which the pest or weed control at 100 ppm is 76 to 100%.

Tested on in the next series: not given
Experiment: not given
Conditions: not given
On to `CC=NOc1ncc(F)c(N(C)Cc2ccc(Cl)cc2)n1` [Compound 44], for which the melting point was 214 to 220 °C (dec.).

`CC=NOc1ncc(F)c(NCc2ccccc2F)n1` [Compound 20]: the melting point is 99 to 100 °C.
